Tests used:
[1] = system: autophagy in HOS cells (GFP-LC3); experiment: High content screening autophagy assay (GFP-LC3 foci); format: cell-based, Human; settings: Homo sapiens, HOS, 6 h, HOS cells with GFP-LC3, autophagy activated by KU-0063794 500 nM with Bafilomycin A1 5 nM, foci area per cell, read-out: Median IC50 (uM) Cellular assay
Method: Human osteosarcoma cells (HOS) stably expressing a Green Fluorescent Protein (GFP) tagged LC3 (GFP-LC3) were used to determine the inhibitory effect on autophagy of proprietary compounds. For that purpose, autophagy was activated by using the mTOR inhibitor KU-0063794 at 500 nM in the presence of Bafilomycin A1 (Sigma-Aldrich) at 5 nM. Shortly, cells were plated overnight in clear bottom 96-well plates in DMEM-High Modified media (Hi-Clone Cat #SH30285.01). At the start of the experiment, the media was removed and replaced with fresh media containing the mTOR inhibitor, Bafilomycin A1 and the vehicle or a test compound as indicated. After 6 hours the media was removed, cells were washed twice with ice-cold phosphate buffered saline (PBS) and fixed with 4% paraformaldehyde for 20 minutes at room temperature. Then the cells were washed twice with ice-cold PBS before adding Hoechst 33342 at 1 μg/ml in PBS for nuclear staining. After incubation overnight at 4° C., cells were washed once with PBS to remove the excess of dye and 100 μl of PBS was added to each well. Images were acquired at 20× magnification, 6 images per well, using the ImageXpress automated microscope (Molecular Devices Inc.) and analyzed with MetaXpress software to identify LC3-GFP foci. Foci area per cell values were used to generate dose response curves and IC50 values were calculated using the non-linear fitting analysis in GraphPad Prism software.

Vps34 enzyme = Vps34 enzyme (Homo sapiens (Human), UniProt Q8NEB9); experiment: Vps34 biochemical assay (Adapta kinase assay); settings: 20 μM ATP and 200 μM PI:PS in substrate mix, 1 h at room temperature, read-out: Median IC50 uM Adapta
Sequence of Vps34 enzyme (Q8NEB9 whole entry): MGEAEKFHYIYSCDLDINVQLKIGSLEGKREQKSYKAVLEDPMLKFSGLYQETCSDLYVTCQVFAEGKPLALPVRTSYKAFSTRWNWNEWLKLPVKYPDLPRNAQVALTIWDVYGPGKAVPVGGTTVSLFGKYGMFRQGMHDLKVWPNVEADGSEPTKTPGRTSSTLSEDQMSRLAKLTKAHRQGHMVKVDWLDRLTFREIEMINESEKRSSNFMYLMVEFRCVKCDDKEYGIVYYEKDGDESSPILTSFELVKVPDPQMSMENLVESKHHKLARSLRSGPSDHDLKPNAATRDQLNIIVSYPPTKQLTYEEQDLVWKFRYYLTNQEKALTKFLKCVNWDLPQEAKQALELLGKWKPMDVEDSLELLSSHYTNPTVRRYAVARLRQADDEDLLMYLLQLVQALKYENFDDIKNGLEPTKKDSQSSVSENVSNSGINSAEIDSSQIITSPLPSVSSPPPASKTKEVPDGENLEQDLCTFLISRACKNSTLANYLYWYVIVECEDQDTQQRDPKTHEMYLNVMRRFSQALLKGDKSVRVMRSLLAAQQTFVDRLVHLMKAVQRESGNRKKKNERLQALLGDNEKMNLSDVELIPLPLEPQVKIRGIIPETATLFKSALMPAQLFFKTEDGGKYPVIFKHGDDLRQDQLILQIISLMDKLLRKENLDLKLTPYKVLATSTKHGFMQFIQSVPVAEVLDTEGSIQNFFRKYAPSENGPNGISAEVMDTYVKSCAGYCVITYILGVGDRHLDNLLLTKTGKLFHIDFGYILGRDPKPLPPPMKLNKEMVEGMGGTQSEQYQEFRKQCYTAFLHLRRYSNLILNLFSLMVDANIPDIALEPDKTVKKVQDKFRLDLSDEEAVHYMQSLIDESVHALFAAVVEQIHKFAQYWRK
Method: Dilution series of compounds of the invention were prepared in DMSO at 100 times the final assay concentration (n1=n0/3 in 10 points). The compounds were further diluted to 4 times the assay concentration in assay buffer (Life technologies buffer Q, PV5125, diluted 5 times supplemented with 2 mM DTT and 2 mM MnCl2). 2.5 μl of the diluted compounds were added to a 384 well assay plate followed by 2.5 μl of 16.5 nM Vps34 enzyme (Life technologies, PV5126). Enzyme and compounds were pre-incubated at rt for 15 min. Then 5 μl of substrate mix containing 20 μM ATP (Life technologies, PV3227) and 200 μM PI:PS substrate (Life technologies, PV5122) in assay buffer was added to the wells containing compound and enzyme. Mixing was performed by pipetting several times. The reaction was incubated at room temperature for 1 h. Then 5 μl stop-detection mix, prepared as described in the Adapta kinase assay kit instructions (Life technologies, PV5099) containing Adapta Eu-anti-ADP antibody (2.3 nM), Alexa Fluor 647 ADP tracer (9 nM) and EDTA (30 mM) in TR-FRET buffer, was added to quench the reaction. Mixing was performed by pipetting several times. The assay plate was then incubated at room temperature for 30 min and read with Artemis micro plate reader. Percent inhibition of the compounds as compared to DMSO treated control samples was calculated. By the use of Dotmatics software compound concentration versus percent inhibition was fitted to generate IC50 values.

| Structure (SMILES) | IC50 [1] [µM] | IC50 (Vps34 enzyme) [µM] |
| --- | --- | --- |
| C[C@@H]1COCCN1c1cc(N2CCCC2c2cccc(C(F)(F)F)c2)[nH]c(=O)c1 (mixture of isomers) [Example 16, (R) and (S) 4-[(3R)-3-methylmorpholin-4-yl]-6-[2-[3-(trifluoromethyl)phenyl]pyrrolidin-1-yl]-1H-pyridin-2-one] | 0.3 | 0.04 |
| O=c1cc(N2CCOCC2)cc(N2CCC[C@@H]2c2ccccc2)[nH]1 [Example 4, 4-morpholino-6-[(2R)-2-phenylpyrrolidin-1-yl]-1H-pyridin-2-one] | 9 | 0.05 |
| CC1COCCN1c1cc(C2CCOCC2)[nH]c(=O)c1 (stereo not shown) [Example 6, 4-(3-methylmorpholin-4-yl)-6-tetrahydropyran-4-yl-1H-pyridin-2-one] | 5 | 0.2 |
| CC1COCCN1c1cc(C2=CCOCC2)[nH]c(=O)c1 (stereo not shown) [Example 5, 6-(3,6-dihydro-2H-pyran-4-yl)-4-(3-methylmorpholin-4-yl)-1H-pyridin-2-one] | 15 | 0.2 |
| CC1COCCN1c1cc(N2CCCC2c2cccnc2)[nH]c(=O)c1 (stereo not shown) [Example 8, 4-(3-methylmorpholin-4-yl)-6-[2-(3-pyridyl)pyrrolidin-1-yl]-1H-pyridin-2-one] | 10 | 0.05 |
| C[C@@H]1COCCN1c1cc(N2CCCC2c2cccc(F)c2)[nH]c(=O)c1 (single isomer, unassigned) [Example 13_2] |  | 0.1 |
| C[C@@H]1COCCN1c1cc(N2CCCC2c2nccs2)[nH]c(=O)c1 (mixture of isomers) [Example 39, (R) and (S) 4-[(3R)-3-methylmorpholin-4-yl]-6-(2-thiazol-2-ylpyrrolidin-1-yl)-1H-pyridin-2-one] |  | 0.05 |
| Cc1cc(C2CCCN2c2cc(N3CCOC[C@H]3C)cc(=O)[nH]2)no1 (single isomer, unassigned) [Example 40_1] |  | 0.1 |
| C[C@@H]1COCCN1c1cc(N2CCC[C@H]2C(F)(F)F)[nH]c(=O)c1 [Example 34, 4-[(3R)-3-methylmorpholin-4-yl]-6-[(2S)-2-(trifluoromethyl)pyrrolidin-1-yl]-1H-pyridin-2-one] |  | 0.1 |
| CC1COCCN1c1cc(N2CCOC[C@H]2C)cc(=O)[nH]1 (single isomer, unassigned) [Example 24_2] |  | 0.2 |
| C[C@@H]1COCCN1c1cc(N2CCN(C)CC2c2ccccc2)[nH]c(=O)c1 (stereo partly drawn) [Example 31, 4-[(3R)-3-methylmorpholin-4-yl]-6-(4-methyl-2-phenyl-piperazin-1-yl)-1H-pyridin-2-one] |  | 0.3 |
| C[C@@H]1COCCN1c1cc(N2CCOCC2C2CC2)[nH]c(=O)c1 (stereo partly drawn) [Example 33, 6-(3-cyclopropylmorpholin-4-yl)-4-[(3R)-3-methylmorpholin-4-yl]-1H-pyridin-2-one] |  | 0.03 |
| C[C@@H]1COCCN1c1cc(N2CCCC2C2CCCCC2)[nH]c(=O)c1 (single isomer, unassigned) [Example 12_2] |  | 0.2 |
| C[C@@H]1COCCN1c1cc(N2CCCC2c2ccccc2)[nH]c(=O)c1 (single isomer, unassigned) [Example 18_1] |  | 0.07 |
| C[C@@H]1COCCN1c1cc(N2CCOCC23CCC3)[nH]c(=O)c1 [Example 42, 4-[(3R)-3-methylmorpholin-4-yl]-6-(8-oxa-5-azaspiro[3.5]nonan-5-yl)-1H-pyridin-2-one] |  | 0.03 |
| C[C@@H]1COCCN1c1cc(N2CC[S+]([O-])CC2)[nH]c(=O)c1 [Example 27, 4-[(3R)-3-methylmorpholin-4-yl]-6-(1-oxo-1,4-thiazinan-4-yl)-1H-pyridin-2-one] |  | 0.4 |

Results, then the molecule that gave them:

| IC50 [1] [µM] | IC50 (Vps34 enzyme) [µM] | Structure (SMILES) |
| --- | --- | --- |
| 0.2 | 0.001 | COc1cccc(C2CCCCN2c2cc(N3CCOC[C@H]3C)cc(=O)[nH]2)c1 (single isomer, unassigned) [Example 44_1] |
| 0.3 | 0.006 | C[C@@H]1COCCN1c1cc(N2CCOCC2C(F)(F)F)[nH]c(=O)c1 (stereo partly drawn) [Example 32, 4-[(3R)-3-methylmorpholin-4-yl]-6-[3-(trifluoromethyl)morpholin-4-yl]-1H-pyridin-2-one] |
| 0.1 | 0.003 | CC(=O)N1CCN(c2cc(N3CCOC[C@H]3C)cc(=O)[nH]2)C(C(F)(F)F)C1 (stereo partly drawn) [Example 45, 6-[4-acetyl-2-(trifluoromethyl)piperazin-1-yl]-4-[(3R)-3-methylmorpholin-4-yl]-1H-pyridin-2-one] |
| 0.3 | 0.02 | C[C@@H]1COCCN1c1cc(N2CCCC2c2cccc(C3CC3)c2)[nH]c(=O)c1 (stereo partly drawn) [Example 37, 6-[2-(3-cyclopropylphenyl)pyrrolidin-1-yl]-4-[(3R)-3-methylmorpholin-4-yl]-1H-pyridin-2-one] |
| 1.4 | 0.01 | CC1COCCN1c1cc(N2CCOC[C@H]2C)cc(=O)[nH]1 (single isomer, unassigned) [Example 24_1] |
| 0.03 | 0.002 | C[C@@H]1COCCN1c1cc(N2CCCCC2C(F)(F)F)[nH]c(=O)c1 (single isomer, unassigned) [Example 25_1] |
| 0.6 | 0.008 | C[C@@H]1COCCN1c1cc(N2CCCC[C@@H]2c2ccccc2)[nH]c(=O)c1 [Example 30, 4-[(3R)-3-methylmorpholin-4-yl]-6-[(2R)-2-phenyl-1-piperidyl]-1H-pyridin-2-one] |
| 0.08 | 0.01 | C[C@@H]1COCCN1c1cc(N2CCCC[C@@H]2C(F)(F)F)n(C)c(=O)c1 [Example 41, 1-methyl-4-[(3R)-3-methylmorpholin-4-yl]-6-[(2R)-2-(trifluoromethyl)-1-piperidyl]pyridin-2-one] |
| 2 | 0.02 | C[C@@H]1COCCN1c1cc(N2CCCC2c2cccc(F)c2)[nH]c(=O)c1 (mixture of isomers) [Example 13, (R) and (S) 6-[2-(3-fluorophenyl)pyrrolidin-1-yl]-4-[(3R)-3-methylmorpholin-4-yl]-1H-pyridin-2-one] |
| 0.1 | 0.01 | COc1cccc(C2CCCN2c2cc(N3CCOC[C@H]3C)cc(=O)[nH]2)c1 (mixture of isomers) [Example 17, (R) and (S) 6-[2-(3-methoxyphenyl)pyrrolidin-1-yl]-4-[(3R)-3-methylmorpholin-4-yl]-1H-pyridin-2-one] |
| 2 | 0.02 | CC1COCCN1c1cc(N2CCCC2c2ccccc2)[nH]c(=O)c1 (stereo not shown) [Example 9, 4-(3-methylmorpholin-4-yl)-6-(2-phenylpyrrolidin-1-yl)-1H-pyridin-2-one] |
|  | 0.03 | C[C@@H]1COCCN1c1cc(N2CCCC2c2cccc(N(C)C)c2)[nH]c(=O)c1 (mixture of isomers) [Example 23, (R) and (S) 6-[2-[3-(dimethylamino)phenyl]pyrrolidin-1-yl]-4-[(3R)-3-methylmorpholin-4-yl]-1H-pyridin-2-one] |
|  | 0.005 | C[C@@H]1COCCN1c1cc(N2CCN(C(=O)c3cncc(F)c3)CC2C(F)(F)F)[nH]c(=O)c1 (stereo partly drawn) [Example 46, 6-[4-(5-fluoropyridine-3-carbonyl)-2-(trifluoromethyl)piperazin-1-yl]-4-[(3R)-3-methylmorpholin-4-yl]-1H-pyridin-2-one] |
|  | 0.02 | C[C@@H]1COCCN1c1cc(N2CCCC2c2cc(F)ccc2F)[nH]c(=O)c1 (single isomer, unassigned) [Example 14_1] |

Source: patent publication US11179399B2, “6-heterocyclyl-4-morpholin-4-ylpyridine-2-one compounds useful for the treatment of cancer and diabetes” (Sprint Bioscience AB, priority 2016, dated 2021)
